The source of these data is patent US7888116B2, “Uses of notch receptors, notch ligands, and notch modulators in methods related to metabolic diseases” (The United States of America as represented by the …, priority 2005, dated 2011).

“Also recorded” adds a separate entry of the source.

The test system of data set [1] is Notch-1 (NICD). Nature of the data set: NICD nuclear translocation in RIN cells (indirect immunofluorescence, immunoblot of nuclear extracts). It counts as cell-based, rat. The following applies: for effect on Ex-4-mediated translocation of NICD: H89 10 μM, L-685,458 pretreatment for 2 h. The protocol: (§1) Islet isolation, cell culture and treatments. Adult rat (Sprague-Dawley) and mouse (C57/BL6) islets were isolated by collagenase P digestion and cultured overnight in M199 medium (5 mM glucose). RIN 1046-38 β-cells were cultured as outlined previously (Wang, et al., Endocrinology, 142:1820-1827 (2001)). Isolated human islets came from David Harlan, Transplant Section, NIDDK. Ex-4, GLP-1, CCK (all used at concentrations previously shown to cause maximum insulin release), Ex and the γ-secretase inhibitor, L-685,458, were obtained from Bachem. H89 was from Calbiochem, insulin was from Sigma. The Jagged peptides, R-JAG […] (SEQ ID NO:1), JAG-1 […] (SEQ ID NO:2), and scrambled control peptide without agonist activity, sc-Jagged […] (Nickoloff, et al., Cell Death Differ, 9842-855 (2002)) (SEQ ID NO:3), were synthesised by New England Peptide Inc.
(§2) Cell extracts, immunoblotting and RT-PCR. Cytosolic and nuclear cell extracts were prepared using the NE-PER Nuclear and Cytoplasmic Extraction Reagents (Pierce) in accordance with the manufacturer's instructions. Whole cell extracts were isolated as described (Wang, et al., Endocrinology, 142:1820-1827 (2001)). Cell extracts were separated by Tris-glycine (10%, 4-12%) PAGE (Invitrogen) and immunoblofted as described (Wang, et al., Endocrinology, 142:1820-1827 (2001)) using the following antibodies: rabbit anti-Notch1 (1:5,000), rabbit anti-IRS2 (1:1,000), both from Upstate Biotechnology, rabbit N-terminal anti-PDX-1 (1:10,000, from Joel Habener (Stanojevic, et al., Endocrinology, 145:2918-2928 (2004)). Total RNA was extracted using Triazol (Invitrogen) according to the manufacturer's instructions. RT-PCR was performed using the Qiagen OneStep RT-PCR kit. See Table 2 for primer sequences and annealing temperatures. Each target gene was amplified over 35 cycles.
(§3) RIN cells were permeabilized in Triton-X (0.1%) on ice and blocked for 1 h at room temperature in 3% BSA and 0.1% Tween in PBS. They were incubated overnight at 4° C. with the primary antibody, washed in PBS and incubated with fluorescent labelled secondary antibody for 1 h, washed and mounted with fluorescence mounting medium (Vector Laboratories). Mouse sections (FIG. 9) for indirect immunofluorescence were antigen-retrieved, processed in the same manner as the cells and stained with anti-Notch-1. Indirect immunofluorescent staining was imaged using a Zeiss LSM-410 inverted microscope. AlexaFluor antibodies (Molecular Probes; Eugene, Oreg.) were excited with the 488-nm line of a krypton-argon laser and recorded at the presence of emission filter BP515-565 nm. The microscope objective was a Zeiss 63×NA 1.4 oil immersion and the confocal pinhole was set to obtain spatial resolution of […] in the horizontal plane and […] in the axial dimension.
Background: In western blotting, separated proteins are transferred to a membrane and probed.

The target of the next data set is T1, γ-secretase (Rattus norvegicus, UniProt P97887).
T1 construct: endogenous in cells; host or cells: RIN 1046-38 rat β-cells
Description: γ-secretase activity assay (Notch ΔE-GVP / UAS-luciferase reporter) in RIN cells. It counts as cell-based. Conditions: for effect on Ex-4-activated γ-secretase cleavage / UAS promoter activation: RIN cells transfected with Notch ΔE-GVP. The protocol: Transfections and Luciferase assays. The rat insulin-I promoter linked to the luciferase reporter plasmid pGL3 (Ins-1-luc) was obtained from Michael Freemark (Fleenor and Freemark, Endocrinology, 142:2805-2810 (2001)), and both the Notch ΔE-GVP plasmid and UAS responsive reporter gene construct MH100 were from Johan Lundkvist (Karlstrom, et al., J Biol Chem, 277:6763-6766 (2002)). For the insulin reporter gene assay, RIN cells in 35 mm dishes were co-transfected with 0.8 μg ins-1-luc plasmid and 0.7 μg of pCMV-β-galactosidase using 8 μl of Polyfect (Qiagen). For the γ-secretase activity assay RIN cells in 12 well plates were co-transfected with 30 ng of pCMV-β-galactosidase, 200 ng of MH100, 100 ng Notch ΔE-GVP plasmids for each well using Lipofectamine PLUS (Invitrogen). The transfected cells were allowed to recover for 24-48 h in medium with serum and subsequently incubated in insulin secretion assay buffer (for the insulin promoter assay) or in medium without serum (for the γ-secretase assay) with or without Ex-4 and inhibitors. Ins-1-luc and Notch ΔE-GVP activities were measured using assay system kits from Promega according to the manufacturer's instructions using a Berthord LB 9501 luminometer. The luciferase values were normalized to β-galactosidase measured using the luminometer for lysates from 35 mm dishes and an ELISA plate reader (Spectra Max Plus, Molecular Devices) for lysates from 12 well plates.
For orientation: Reporter assays use an easily measured gene product as a stand-in for the process of interest.

The subject of the next data set is C57/BL6 mouse islets. Nature of the data set: Immunoblotting for IRS2 and PDX-1 in C57/BL6 mouse islets treated for 8 h. It counts as cell-based. The following applies: for PDX-1 levels: islets. On the procedure:
as §1, §2

Data set [2] relates to RIN cells. Description: [3H]thymidine uptake (β-cell proliferation) in RIN cells. It counts as cell-based, rat. Conditions: 8 h treatment. The protocol:
(§4) Insulin assays and cell turnover studies. Insulin secretion assays were performed and intracellular insulin was extracted as described (Wang, Y. et al., J. Clin. Invest., 99:2883-2889 (1997)), followed by insulin quantification using an ELISA kit (Crystal Chem). Cells were treated for 8 h as indicated and pulsed with [^3H]thymidine (PerkinElmer Life Sciences) at 37° C., followed by lysis of the cells and [^3H] counting (He, et al., J Biol Chem, 278:27096-27104 (2003)).

Data set [3] relates to RIN cells. Description: RT-PCR and immunoblotting of whole RIN cell extracts (insulin, IRS2, PDX-1, Notch-1). It counts as cell-based, rat. On the procedure: as §2, with “Each target gene was amplified over 35 cycles.” left out
Another data set concerns RIN 1046-38 β-cells. Description: Insulin secretion and intracellular insulin in RIN cells (ELISA). The format is cell-based, rat. Conditions: for insulin release, R-JAG and Ex-4 together vs either alone: 6 h time point; for total intracellular insulin: 6 h treatment; for insulin release into the medium: time course. The protocol:
as §4
On the technique in general: ELISA stands for enzyme-linked immunosorbent assay.

Another data set has as its system Rat islets. Nature of the data set: Rat islets: real time PCR and intracellular insulin after R-JAG. It counts as cell-based. On the procedure:
Rat islets (80) were pre-incubated for 2 periods of 30 min in the glucose-free buffer in a 37° C. humidified air incubator. […] At the end of the experiment, islets were centrifuged and any residual medium removed and stored −20° C. for quantification of insulin released. The pellet was suspended in ice cold acid-ethanol (500 μl) and homogenized. After centrifugation of the homogenate (1,400 g, 4° C.) the supernatant was collected for measurement of intracellular insulin using the Rat insulin ELISA kit from Crystal Chem. Inc. (Chicago, Ill.). The pellet was lysed with 0.2 ml formic acid and saved at […] for analysis of protein by the Bradford method (Bio-Rad Laboratories, Inc. Richmond, Calif.). A control condition with insulin secretion assay buffer containing just 6 mM glucose was used. Insulin values were normalized to protein content.
Reverse transcription. DNA-free RNA was isolated using the Triazol extraction method (Invitrogen; Carlsbad, Calif.) following the manufacturer's protocol. DNAse I treatment and inactivation, and reverse transcription reaction primed with random sequence oligonucleotides were performed using Ambion instruction manual and Cells-to-cDNA II kits components in the I-Cycler thermocycler from BioRad. As a control, a mock reverse transcription containing all RT reagents except the Reverse Transcriptase, which was substituted with water, was used.
Real Time PCR. Real time PCR reactions were performed using the ABI PRISM™ 7700 Sequence Detection Systems (Applied Biosystems; Valencia, Calif.) and the SYBER Green kit from Applied Biosystems. All PCR reactions were performed in triplicate using the SYBER Green master mix (12.5 μl) from Applied Biosystems, 1 μg of cDNA, 2.5 μl of each 0.5 μM primer and water for a 25 μl reaction. Cycling parameters for amplifications of target genes were (95° C. for 10 min, at 94° C. for 15 seconds, 60° C. for 1 min)×40 cycles. The target gene copy number in unknown samples was quantified by measuring the threshold cycle CT and by using the standard curve to determine the starting copy number. The β-actin gene was an endogenous control. Final results were expressed as n-fold differences relative to untreated controls.

In data set [4] the test system is Notch-1 (NICD). Nature of the data set: NICD in islet nuclei of wild-type and GLP-1R null mice after intraperitoneal treatment. The format is in vivo, mouse. Conditions: fasted, 1 nmol/kg IP. The protocol: as §3, with “Animal Protocols. Wild-type and GLP-1R −/− mice (Scrocchi, L. A. et al. Nat. Med., 2:1254-1258 (1996)) were injected intraperitoneally with Ex-4 (1 nmol/kg) or glucose (1 g/kg) after overnight fast and their pancreata excised. Animal protocols were approved by the NIA Animal Care and Use Committee. RIN” for “RIN”

On to Exendin 9-39, for which the “NICD nuclear localization with GLP-1 (50 nM) in conjunction with the GLP-1R antagonist” value with Notch-1 (NICD) [1] (RIN cells, antagonist 500 nM) is “equivalent to glucose treatment alone”.

Regarding insulin, in the data set on Notch-1 (NICD) [1] (RIN cells treated with secretagogues), the “nuclear NICD / NICD translocation” value is given as “equivalent to control samples”.

Consider `CC(C)C[C@H](NC(=O)[C@H](Cc1ccccc1)C[C@@H](O)[C@H](Cc1ccccc1)NC(=O)OC(C)(C)C)C(=O)N[C@@H](Cc1ccccc1)C(N)=O` [L-685,458], for which the “effect on Ex-4-activated γ-secretase cleavage / UAS promoter activation” value at γ-secretase is reported as “greatly diminished; also recorded: abrogated; also recorded: blocked”. Further, in the data set with C57/BL6 mouse islets (C57/BL6 mouse islets), the “effect on Ex-4-mediated increase in IRS2 levels” value is recorded as “diminished; also recorded: decreased” and the “effect on R-JAG-mediated increases in IRS2 levels” value is “prevented; also recorded: completely abrogated”. In addition, in the data set on Notch-1 (NICD) [1] (RIN cells), the “effect on Ex-4-mediated translocation of NICD” value was “inhibited”.

Consider `O=S(=O)(NCCNC/C=C/c1ccc(Br)cc1)c1cccc2cnccc12` [H89], for which, on γ-secretase, the “effect on Ex-4-activated γ-secretase cleavage / UAS promoter activation” value was “greatly diminished; also recorded: abrogated; also recorded: blocked”. Also, in the data set with Notch-1 (NICD) [1] (RIN cells), the “effect on glucose-mediated NICD translocation” value was “prevented” and the “effect on Ex-4-mediated translocation of NICD” value is reported as “diminished”.

Turning to “scrambled Jagged peptide: scrambled control peptide without agonist activity, RCGPDCFDNYGRYKYCF (SEQ ID NO:3)”, in the data set on RIN cells [2], the “[3H]thymidine uptake, increase above glucose treatment” value was “no effect”.

Consider “R-JAG: Jagged-related peptide, Notch receptor binding fragment, CDDYYYGFGCNKFGRPRDD (SEQ ID NO:1)”, for which the PDX-1 levels result with RIN cells [3] was “increased”. In the data set with RIN cells [3] (RT-PCR), the “IRS2 and insulin mRNA with replenishing every 2 h” value is “sustained elevations”; the “IRS-2 mRNA” value is “increased”; the “insulin mRNA levels” value is “increased”. Moreover, the “time course of IRS2 and insulin mRNA after single treatment” value in the data set on RIN cells [3] (RT-PCR 27 cycles, normalized to GAPDH) was “diminished after 8 h”. For the same molecule, in the data set with RIN cells [3] (immunoblot), the IRS-2 protein levels entry was “increased” and the “total Notch1 levels” value is on record as “increased”. In addition, in the data set with C57/BL6 mouse islets, the PDX-1 levels result is “increased”. In the data set with C57/BL6 mouse islets (mouse islets of Langerhans), the “increase in IRS-2 protein levels” value is 1.5 fold. The “trypan blue exclusion (cell death)” value in the data set on RIN 1046-38 β-cells (RIN cells treated with R-JAG) was “continued to exclude trypan blue”. Besides, the “insulin secretion, replenishment every two hours vs single treatment” value in the data set on RIN 1046-38 β-cells (RIN cells, 6 h) is “greater effect”. Further, in the data set with RIN 1046-38 β-cells (RIN cells), the “insulin release, R-JAG and Ex-4 together vs either alone” value is “greater that either alone”; the total intracellular insulin entry is recorded as “significant increase”; the “insulin release into the medium” value is listed as “elevated insulin release into the medium after 2.5 h had elapsed”. Moreover, the intra-cellular insulin entry with Rat islets (R-JAG 10 μM, glucose 6 mM) is “increase”. Moreover, in the data set with Rat islets (over 2 and 6 hours), the IRS-2 transcription result is given as “increases”, the PDX-1 transcription result is “increases” and the insulin transcription entry is on record as “increases”. For the same molecule, the “[3H]thymidine uptake, increase above glucose treatment” value in the data set on RIN cells [2] is 30%.

On to Exendin-4 [Ex-4], for which the “NICD translocation to islet cell nuclei” value in the data set with Notch-1 (NICD) [4] is “caused NICD translocation to nuclei of practically all islet cells; also recorded: increased NICD in all islet cells”. Also, the “increase in transcriptional activation of the UAS promoter (cleavage of Notch ΔE-GVP)” value in the data set with γ-secretase (RIN cells transfected with Notch ΔE-GVP and MH100) is reported as “at least 20 fold”. In addition, in the data set on C57/BL6 mouse islets, the PDX-1 levels entry was “increased”. Moreover, in the data set with RIN 1046-38 β-cells (RIN cells), the “insulin release, R-JAG and Ex-4 together vs either alone” value was “greater that either alone”; the total intracellular insulin entry is recorded as “increased”; the “insulin release into the medium” value was “acutely increased”. Further, the “[3H]thymidine uptake, increase above glucose treatment” value in the data set with RIN cells [2] is on record as “increased”.
